According to patent US8030347B2, “Cylopenta[b]benzofuran derivatives and the utilization thereof” (Bayer HealthCare AG, priority 2004, dated 2011):

Assays:
H460 cells = experiment: In vitro proliferation of tumor cells (CellTiter-Glo); type: cell-based; conditions: NCI-H460; H460 human lung carcinoma cells, 24 h after addition of substance
Text: Various types of cancer are characterized by uncontrolled, excessive proliferation of various cell types, leading to the development of metastases and tumors. The possible use of the substances according to the invention for the treatment of hyperproliferative disorders can be investigated by their activity on the cell division rate of tumor cells in vitro. The indicator between antiproliferative effect in vitro and clinical antitumor effect is well established. The therapeutic utilizability of, for example, Taxol [Silvestrini et al., Stem Cells 11, 528-535 (1993)], Taxotere [Bissery et al., Anti Cancer Drugs 6, 339 (1995)] or topoisomerase inhibitors [Edelman et al., Cancer Chemother.
The tumor cell lines such as, for example, MDA-MB-231 cells (human breast adenocarcinoma cells), H460 cells (human lung carcinoma cells) or HCT-15 cells (human colon adenocarcinoma cells) are expanded in appropriate growth media (Sigma, Taufkirchen, Germany) recommended by the supplier (e.g. LGC Promochem, Wesel, Germany). One day before adding the compounds according to the invention, the cells are distributed in a density of 3000 cells/well in 100 μl of growth medium on black 96-well microtiter plates with clear base. On the day of addition of test substance, one microtiter plate for each tumor cell line is used to determine the initial cell count present in the wells. The substances according to the invention, diluted in growth medium and DMSO, are added to the related plates. The test substances are usually added in various concentrations starting with 10 μM final concentration in the assay. The DMSO concentration in the assay is 0.1%. Twenty-four hours after addition of the substance, the cell counts in each well are determined using the CellTiter-Glo® Luminescent Cell Viability-Tests (Promega GmbH, Mannheim, Germany). The test is carried out in accordance with the manufacturer's instructions and evaluated using a luminometer. To ascertain the antiproliferative activity of the compounds according to the invention, the cell counts determined before addition of substance in related plates are subtracted, and the percentage difference of the changes in the cell counts between substance-treated and vehicle-treated cells is determined. The relative activity of the different test substances is determined by a comparison of the concentrations which bring about 50% of their maximum effect (IC50).

[1] = test system: Interleukin-8 (IL-8) release from human endothelial cells; experiment: Inhibition of interleukin-8 (IL-8) release from human endothelial cells (HUVEC), IL-1β induced, ELISA; type: cell-based; conditions: IL-1β 10 ng/ml, 6 h, IL-8 by ELISA, read-out: IC50 (50% inhibition of IL-8 release relative to the maximum effect)
Text: 1.a) Inhibition of Interleukin-8 (IL-8) Release from Human Endothelial Cells
The expression of the human IL-8 gene is controlled by a diversity of regulatory and enhancer elements which are located above the promoter region of the gene. These elements comprise binding sites for transcription factors, and efficient transcription of the IL-8 gene is possible only through the interaction thereof with their DNA binding sites. The activity of the corresponding transcription factors can be induced by various stimuli (e.g. interleukin-1β, tumor necrosis factor-α) and can be modulated by various signal transduction pathways [H. Holtmann et al., Mol. Cell. Biol. 19, 6742-6753 (1999)].
For maximum expression of IL-8, the activity of two different transcription factors is essential: NF-κB and AP-1 [Y.-H. Chang et al., Exp. Cell Res. 278, 166-174 (2000)]. Cytokine-induced IL-8 synthesis can therefore be employed as test system for identifying and characterizing test substances which inhibit directly or indirectly the binding of NF-κB and AP-1 to their DNA binding sites.
Human umbilical cord endothelial cells (HUVEC) were purchased from CellSystems (St. Katharinen, Germany) and cultured in accordance with the supplier's recommendation in EGM-2 medium including growth additions (CellSystems, St. Katharinen, Germany) in 165 cm^2 tissue culture bottles. After the cell lawn has reached 60-80% confluence, the cells are detached from the base of the bottle by trypsin treatment, mechanically dissociated and seeded in a cell density of 5000 cells/well in 96-well microtiter plates (Corning, Wiesbaden, Germany). After 3 days, the culture medium is completely replaced by 170 μl of fresh medium per well. The cells are employed for the experiments on the following day.
To determine the inhibitory effect of the substances according to the invention on IL-8 release, they are firstly dissolved in a concentration ten times higher than the desired final concentration in the test in medium which comprises 1% DMSO. Subsequently, 20 μl of the substance solution are added per well. The formation and release of IL-8 is then induced by adding interleukin-1β (IL-1β, final concentration 10 ng/ml; Biosource GmbH, Solingen, Germany), and the cells are incubated in a CO2 incubator at 37° C. for 6 h. Thereafter, 150 μl of the cell supernatant are removed and frozen at −20° C. until the IL-8 content is measured by ELISA (Biosource GmbH, Solingen, Germany). To carry out the ELISA, the samples are thawed and are diluted 1:10, and the test is carried out in accordance with the manufacturer's instructions. The inhibitory effect of the compounds according to the invention on IL-8 release is ascertained by comparison with vehicle-treated cells.

[2] = Metabolic stability: in vitro incubation with liver microsomes; type: in vitro ADME; conditions: Mouse liver microsomes; for CL: calculated from half-life in the incubation mixture; for Fmax: maximum bioavailability calculated from half-life in the incubation mixture
Protocol: In Vitro Incubation with Liver Microsomes:
The hepatic microsomal stability is determined by incubating the substances according to the invention with liver microsomes from various species. The incubation concentration of the substances is kept as low as possible (preferably <1 μM), as is the concentration of the microsomal proteins in the test mixture (preferably 0.2 mg of microsomal protein per ml of incubation mixture). This procedure makes it possible to operate in the linear region of the Michaelis-Menten kinetics for most compounds. A sample is taken from the incubation mixture at various times (seven times in total) to determine the remaining substance concentration. The clearance (CL) and the maximum bioavailability (Fmax) of the test substance is calculated for the respective species from the half-life of the substance in the incubation mixture.
The experiments are carried out as described in detail in J. B. Houston and D. J. Carlile [Drug Metab. Rev. 29, 891-922 (1997)].

SMILES | IC50 [1] | CL [2] | Fmax [2] | IC50 (H460 cells)
CN(C)CCOc1cccc2c1[C@]1(O)[C@@H](O)C[C@@H](c3ccccc3)[C@]1(c1ccc(Cl)cc1)O2 (relative stereo) [Example 49, (1S*,3S*,3aR*,8bS*)-3a-(4-Chlorophenyl)-8-(2-dimethylaminoethoxy)-3-phenyl-2,3,3a,8b-tetrahydrocyclopenta[b]benzofuran-1,8b-(1H)-diol] | – | – | – | 29.7 nM
CCOc1cc(OCC)c2c(c1)O[C@@]1(c3ccc(Br)cc3)[C@H](c3ccccc3)[C@@H](C(=O)N(C)C)C(=O)[C@@]21O (relative stereo) [Example 12, (2R*,3S*,3aR*,8bR*)-3a-(4-Bromophenyl)-6,8-diethoxy-2-dimethylcarbamid-8b-hydroxy-3-phenyl-2,3,3a,8b-tetrahydrocyclopenta[b]benzofuran-1-one] | 466 nM | 49.5 mL/min/kg | 45.1% | –
CN(C)CCOc1cc(OCCN(C)C)c2c(c1)O[C@@]1(c3ccc(Cl)cc3)[C@H](c3ccccc3)C[C@@H](O)[C@@]21O (relative stereo) [Example 21, (1R*,3S*,3aR*,8bS*)-6,8-Bis(2-dimethylaminoethoxy)-3a-(4-chlorophenyl)-3-phenyl-2,3,3a,8b-tetrahydrocyclopenta[b]benzofuran-1,8b-(1H)-diol] | – | – | – | 1.5 nM
CN(C)CCOc1cc(OCCN(C)C)c2c(c1)O[C@@]1(c3ccc(Br)cc3)[C@H](c3ccccc3)C[C@H](O)[C@@]21O (relative stereo) [Example 22, (1S*,3S*,3aR*,8bS*)-6,8-Bis(2-dimethylaminoethoxy)-3a-(4-bromophenyl)-3-phenyl-2,3,3a,8b-tetrahydrocyclopenta[b]benzofuran-1,8b-(1H)-diol] | 90 nM | <45 mL/min/kg | >50% | –
CCOc1ccc2c(c1)O[C@@]1(c3ccc(Cl)cc3)[C@H](c3ccccc3)C[C@H](O)[C@@]21O (relative stereo) [Example 23, (1S*,3S*,3aR*,8bS*)-3a-(4-Chlorophenyl)-6-ethoxy-3-phenyl-2,3,3a,8b-tetrahydrocyclopenta[b]-benzofuran-1,8b-(1H)-diol] | 202 nM | – | – | 99.7 nM

Second part, led by results:

IC50 [1] | CL [2] | Fmax [2] | SMILES | IC50 (H460 cells)
214 nM | <45 mL/min/kg | >50% | O[C@H]1C[C@@H](c2ccccc2)[C@]2(c3ccc(Cl)cc3)Oc3cccc(OCCN4CCCC4)c3[C@]12O (racemic) [Example 48, (1S*,3S*,3aR*,8bS*)-3a-(4-Chlorophenyl)-3-phenyl-8-(2-pyrrolidin-1-ylethoxy)-2,3,3a,8b-tetrahydrocyclopenta[b]benzofuran-1,8b-(1H)-diol] | 47.9 nM
166 nM | <45 mL/min/kg | >50% | CCOc1cc(OCC)c2c(c1)O[C@@]1(c3ccc(Cl)cc3)[C@H](c3ccccc3)C[C@@H](N)[C@@]21O (racemic) [Example 15, (1R*,3S*,3aR*,8bS*)-1-Amino-3a-(4-chlorophenyl)-6,8-diethoxy-8b-hydroxy-3-phenyl-2,3,3a,8b-tetrahydrocyclopenta[b]benzofuran] | –
112 nM | <45 mL/min/kg | >50% | CN(C)CCOc1ccc2c(c1)O[C@@]1(c3ccc(Cl)cc3)[C@H](c3ccccc3)C[C@H](O)[C@@]21O (racemic) [Example 32, (1S*,3S*,3aR*,8bS*)-3a-(4-Chlorophenyl)-6-(2-dimethylaminoethoxy)-3-phenyl-2,3,3a,8b-tetrahydrocyclopenta[b]benzofuran-1,8b-(1H)-diol] | 0.5 nM
20 nM | <45 mL/min/kg | >50% | COCCOc1cc(OCCOC)c2c(c1)O[C@@]1(c3ccc(Br)cc3)[C@H](c3ccccc3)C[C@@H](O)[C@@]21O (relative stereo) [Example 18, (1R*,3S*,3aR*,8bS*)-6,8-Bis(2-methoxyethoxy)-3a-(4-bromophenyl)-3-phenyl-2,3,3a,8b-tetrahydrocyclopenta[b]benzofuran-1,8b-(1H)-diol] | –
170 nM | <45 mL/min/kg | >50% | CCOc1cc(OCC)c2c(c1)O[C@@]1(c3ccc(-c4ccsc4)cc3)[C@H](c3ccccc3)C[C@@H](O)[C@@]21O (relative stereo) [Example 3, (1R*,3S*,3aR*,8bS*)-6,8-Diethoxy-3-phenyl-2,3,3a,8b-tetrahydro-3a-(4-thiophen-3-ylphenyl)-cyclopenta[b]benzofuran-1,8b-(1H)-diol] | –
